Measurements from US12581252B2, “Substituted pyrrolo[3,4-b]pyridines as PI3K-α inhibitors” (Relay Therapeutics, Inc., priority 2020, dated 2026).

target: H1047R PIK3CA enzyme (Homo sapiens, UniProt P42336, H1047R); assay: ADP-Glo Biochemical PIK3CA Kinase Assay
Sequence (P42336 whole entry H1047R): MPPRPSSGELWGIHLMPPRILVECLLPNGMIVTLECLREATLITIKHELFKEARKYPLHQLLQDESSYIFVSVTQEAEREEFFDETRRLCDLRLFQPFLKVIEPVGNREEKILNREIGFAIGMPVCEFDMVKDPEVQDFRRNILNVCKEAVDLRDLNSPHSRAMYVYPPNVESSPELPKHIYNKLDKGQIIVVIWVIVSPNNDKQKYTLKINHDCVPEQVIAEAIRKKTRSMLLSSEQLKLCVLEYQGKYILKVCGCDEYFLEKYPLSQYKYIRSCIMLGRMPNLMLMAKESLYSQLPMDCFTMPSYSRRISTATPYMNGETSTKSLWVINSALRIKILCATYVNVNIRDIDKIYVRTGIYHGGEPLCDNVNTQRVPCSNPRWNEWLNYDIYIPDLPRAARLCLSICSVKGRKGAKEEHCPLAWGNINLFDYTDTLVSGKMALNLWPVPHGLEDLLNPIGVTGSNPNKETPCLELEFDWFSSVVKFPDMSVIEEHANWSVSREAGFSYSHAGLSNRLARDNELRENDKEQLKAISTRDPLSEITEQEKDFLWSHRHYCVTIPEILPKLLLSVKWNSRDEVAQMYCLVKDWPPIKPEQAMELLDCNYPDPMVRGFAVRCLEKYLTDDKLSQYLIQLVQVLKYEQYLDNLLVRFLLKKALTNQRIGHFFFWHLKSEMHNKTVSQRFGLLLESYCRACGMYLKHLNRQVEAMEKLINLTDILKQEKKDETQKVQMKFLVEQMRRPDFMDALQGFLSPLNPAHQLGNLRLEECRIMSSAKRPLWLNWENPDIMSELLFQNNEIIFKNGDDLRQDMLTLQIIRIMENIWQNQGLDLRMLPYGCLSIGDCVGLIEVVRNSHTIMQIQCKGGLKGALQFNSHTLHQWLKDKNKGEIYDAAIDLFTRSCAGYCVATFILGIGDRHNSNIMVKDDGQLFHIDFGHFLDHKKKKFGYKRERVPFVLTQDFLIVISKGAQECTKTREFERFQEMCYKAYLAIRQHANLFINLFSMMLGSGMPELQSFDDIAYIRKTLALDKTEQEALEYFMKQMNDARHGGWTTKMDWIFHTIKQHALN
Sequence (P27986 whole entry partner): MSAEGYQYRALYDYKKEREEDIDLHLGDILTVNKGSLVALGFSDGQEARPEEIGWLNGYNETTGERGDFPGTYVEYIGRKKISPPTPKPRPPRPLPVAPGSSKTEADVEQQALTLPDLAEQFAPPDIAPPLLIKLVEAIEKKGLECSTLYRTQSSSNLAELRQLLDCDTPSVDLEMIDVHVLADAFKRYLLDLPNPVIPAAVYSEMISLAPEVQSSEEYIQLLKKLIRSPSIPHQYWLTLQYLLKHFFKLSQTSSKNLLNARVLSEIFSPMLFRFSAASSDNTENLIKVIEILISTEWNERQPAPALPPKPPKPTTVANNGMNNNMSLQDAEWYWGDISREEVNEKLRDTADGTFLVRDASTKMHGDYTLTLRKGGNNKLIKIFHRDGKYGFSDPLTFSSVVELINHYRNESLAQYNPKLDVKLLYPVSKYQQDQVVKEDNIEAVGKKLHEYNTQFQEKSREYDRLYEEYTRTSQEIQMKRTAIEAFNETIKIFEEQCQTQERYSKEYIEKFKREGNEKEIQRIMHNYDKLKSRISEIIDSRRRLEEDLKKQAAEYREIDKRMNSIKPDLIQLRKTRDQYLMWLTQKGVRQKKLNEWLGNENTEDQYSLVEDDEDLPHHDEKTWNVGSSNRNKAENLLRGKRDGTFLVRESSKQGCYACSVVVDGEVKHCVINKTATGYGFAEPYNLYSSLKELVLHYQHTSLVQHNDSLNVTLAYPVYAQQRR

| IC50 [nM] | SMILES |
| --- | --- |
| 1000 to 10000 | O=C(Nc1cc(Br)cc2c1C(c1cc(F)ccc1Cl)NC2=O)c1nc2ccccc2[nH]1 (centres unmarked) [Compound I-1617] |
| 10000 to 100000 | O=C1NC(c2cc(F)ccc2Cl)c2c(/C=C/c3ccccc3)cccc21 (centres unmarked) [Compound I-2106] |
| ≤ 100 | Cc1ccccc1C1NC(=O)c2c(C#N)ccc(NC(=O)c3csc4ccccc34)c21 (centres unmarked) [Compound I-132, N-(7-Cyano-1-oxo-3-(o-tolyl)isoindolin-4-yl)benzo[b]thiophene-3-carboxamide] |
| ≤ 100 | O=C1CC(c2cc(NC(=O)c3cc(F)cc(C(F)(F)F)c3)c3c(c2)C(=O)NC3c2cc(F)ccc2Cl)CN1 (centres unmarked) [Compound I-1360] |
| ≤ 100 | O=C(Nc1cc(CS(=O)(=O)c2ncccn2)cc2c1C(c1cc(F)ccc1Cl)NC2=O)c1cc(F)cc(C(F)(F)F)c1 (centres unmarked) [Compound I-1570] |
| 10000 to 100000 | O=C(Nc1cccc2c1C(C1CCCN1)NC2=O)c1cc(F)cc(C(F)(F)F)c1 (racemic) [Compound I-1956] |
| 1000 to 10000 | O=C(Nc1cccc2c1C(CC1CCCCC1)NC2=O)c1cc(F)cc(C(F)(F)F)c1 (centres unmarked) [Compound I-1732] |
| ≤ 100 | N#Cc1cnc2ccc(-c3cc(NC(=O)c4cc(F)cc(C(F)(F)F)c4)c4c(c3)C(=O)NC4c3cc(F)ccc3Cl)cn12 (centres unmarked) [Compound I-1410] |
| ≤ 100 | Cc1ccccc1[C@@H]1NC(=O)c2cc(N)cc(NC(=O)c3cc(F)cc(C(F)(F)F)c3)c21 [Compound I-66] |
| 1000 to 10000 | NCc1cc(NC(=O)N2C[C@@](O)(C(F)F)c3cc(F)ccc32)c2c(c1)C(=O)N[C@H]2c1cc(F)ccc1Cl (single isomer, unassigned) [Compound I-2696] |
| ≤ 100 | Cc1ccccc1C1NC(=O)c2c(C(=O)NCC(N)=O)ccc(NC(=O)c3nsc4ccccc34)c21 (centres unmarked) [Compound I-261] |
| 1000 to 10000 | Cn1ccc2c(F)cc(C(=O)Nc3cc(Br)cc4c3C(c3cc(F)ccc3Cl)NC4=O)cc21 (centres unmarked) [Compound I-1005] |
| 500 to 1000 | N[C@]1(C(F)(F)F)CN(C(=O)Nc2cccc3c2[C@H](c2cc(F)ccc2Cl)NC3=O)c2ccc(F)cc21 (single isomer, unassigned) [Compound I-2472] |
| 100 to 500 | CN1CCN(Cc2cc(NC(=O)c3cc(F)cc(C(F)(F)F)c3)c3c(c2)C(=O)NC3c2cc(F)ccc2Cl)CC1=O (centres unmarked) [Compound I-1235] |
| ≤ 100 | Cn1cnc2ccc(-c3cc(NC(=O)c4cc(F)cc(C(F)(F)F)c4)c4c(c3)C(=O)NC4c3cc(F)ccc3Cl)cc21 (centres unmarked) [Compound I-1027] |
| 1000 to 10000 | CCC1C(C)CCN1C(=O)Nc1cccc2c1C(c1cc(F)ccc1Cl)NC2=O (mixture of isomers) [Compound I-2394] |
| 100 to 500 | CC(C)(C)OC(=O)NCCSc1cc(NC(=O)c2cc(F)cc(C(F)(F)F)c2)c2c(c1)C(=O)NC2c1cc(F)ccc1Cl (centres unmarked) [Compound I-1297] |
| 1000 to 10000 | O=C(Nc1cc(Br)cc2c1C(c1cc(F)ccc1Cl)NC2=O)c1csc(Cl)c1Cl (centres unmarked) [Compound I-1417] |
| ≤ 100 | CC(C)(O)C#Cc1cc(NC(=O)c2cc(F)cc(C(F)(F)F)c2)c2c(c1)C(=O)NC2c1cc(F)ccc1Cl (centres unmarked) [Compound I-1191] |
| ≤ 100 | O=C(Nc1cc(-c2ccc3nc(Cl)nn3c2)cc2c1C(c1cc(F)ccc1Cl)NC2=O)c1cc(F)cc(C(F)(F)F)c1 (centres unmarked) [Compound I-1575] |
| 10000 to 100000 | CN1CCN(C(=O)Nc2cc(Br)cc3c2[C@@H](c2cc(F)ccc2Cl)NC3=O)CC1(C)C (single isomer, unassigned) [Compound I-2241] |
| 1000 to 10000 | O=C1NC(c2cc(F)ccc2Cl)c2c(Nc3cccc4ccccc34)cc(Br)cc21 (centres unmarked) [Compound I-1682] |

| IC50 [nM] | SMILES |
| --- | --- |
| ≤ 100 | Nc1nc2ccc(-c3cc(NC(=O)c4cc(F)cc(C(F)(F)F)c4)c4c(c3)C(=O)N[C@H]4c3cc(F)ccc3Cl)cn2n1 [Compound I-1445] |
| 500 to 1000 | O=C1NC(c2cc(F)ccc2Cl)c2c(NC(=O)N3CCc4ccccc43)ccnc21 (centres unmarked) [Compound I-257] |
| 10000 to 100000 | O=C1N[C@H](c2cc(F)ccc2Cl)c2c(NC(=O)N3CCOCC(F)(F)C3)cc(Br)cc21 (single isomer, unassigned) [Compound I-2243] |
| 10000 to 100000 | O=C1N[C@@H](c2cc(F)ccc2Cl)c2c(NC(=O)[C@H]3CCCCN3)cc(-c3ccc4ncnn4c3)cc21 [Compound I-2147] |
| 1000 to 10000 | Cc1ccccc1-n1[nH]c(=O)c2cccc(NC(=O)c3nsc4ccccc34)c21 [Compound I-117] |
| ≤ 100 | CC(C)(O)Cc1cc(NC(=O)c2cc(F)cc(Cl)c2)c2c(c1)C(=O)NC2c1cc(F)ccc1Cl (centres unmarked) [Compound I-645] |
| ≤ 100 | O=C(Nc1cc(CS(=O)(=O)c2ccccc2)cc2c1C(c1cc(F)ccc1Cl)NC2=O)c1cc(F)cc(C(F)(F)F)c1 (centres unmarked) [Compound I-1436] |
| 10000 to 100000 | CC(c1nn[nH]c1C(=O)Nc1cccc2c1C(c1cc(F)ccc1Cl)NC2=O)C(F)(F)F (mixture of isomers) [Compound I-2180] |
| 1000 to 10000 | O=C1N[C@H](c2cc(F)ccc2Cl)c2c(NC(=O)N3C[C@@](O)(C(F)(F)F)c4cc(F)ccc43)cc(F)cc21 (single isomer, unassigned) [Compound I-2629] |
| 500 to 1000 | Cc1ncc(-c2cc(NC(=O)c3cc(F)cc(C(F)(F)F)c3)c3c(n2)C(=O)N[C@@H]3c2cc(F)ccc2Cl)cn1 [Compound I-652] |
| 10000 to 100000 | O=C1NC(c2ccccc2C(F)(F)F)c2c(NC(=O)c3nsc4ccccc34)cccc21 (centres unmarked) [Compound I-221] |
| ≤ 100 | O=C(Nc1cc(OCC(O)CO)cc2c1C(c1cc(F)ccc1Cl)NC2=O)c1cc(F)cc(C(F)(F)F)c1 (centres unmarked) [Compound I-1341] |
| ≤ 100 | CNC(=O)c1cc(NC(=O)c2cc(F)cc(C(F)(F)F)c2)c2c(c1)C(=O)NC2c1ccccc1C (centres unmarked) [Compound I-156] |
| ≤ 100 | Cc1nc(C)c(-c2cc(NC(=O)c3cc(F)cc(Cl)c3)c3c(n2)C(=O)NC3c2cc(F)ccc2Cl)s1 (centres unmarked) [Compound I-459] |
| ≤ 100 | N#Cc1cnccc1-c1cc(NC(=O)c2cc(F)cc(C(F)(F)F)c2)c2c(c1)C(=O)N[C@H]2c1cc(F)ccc1Cl (stereo in doubt) [Compound I-1232] |
| 10000 to 100000 | O=C1NC(c2cc(F)ccc2Cl)c2c(NC(=O)C3CCC(O)(C(F)(F)F)CC3)cccc21 (centres unmarked) [Compound I-2155] |
| 10000 to 100000 | O=C1NC(c2cc(F)ccc2Cl)c2c1cccc2-n1cc2ccccc2cc1=O (centres unmarked) [Compound I-1580] |
| 10000 to 100000 | O=C1CCc2cc(F)cc(C(=O)Nc3cc(Br)cc4c3C(c3cc(F)ccc3Cl)NC4=O)c2N1 (centres unmarked) [Compound I-1546] |
| 1000 to 10000 | O=C1NC(c2cc(F)ccc2Cl)c2c(NC(=O)N3CCc4cnccc43)cccc21 (centres unmarked) [Compound I-2191] |
| 10000 to 100000 | O=C(Nc1cc(Br)cc2c1C(c1cc(F)ccc1Cl)NC2=O)c1ccc(F)cc1 (centres unmarked) [Compound I-525] |
| 1000 to 10000 | N#Cc1cnc2cc(F)c(-c3cc(NC(=O)c4cc(F)cc(C(F)(F)F)c4)c4c(c3)C(=O)N[C@@H]4c3cc(F)ccc3Cl)cn12 [Compound I-1883] |
| ≤ 100 | CC(C)n1cc(-c2cc(NC(=O)c3cc(F)cc(C(F)(F)F)c3)c3c(c2)C(=O)N[C@H]3c2cc(F)ccc2Cl)ccc1=O [Compound I-743] |

| IC50 [nM] | SMILES |
| --- | --- |
| 1000 to 10000 | Nc1cc(NC(=O)c2cc(F)cc(C(F)(F)F)c2)c2c(c1)C(=O)N[C@@H]2c1cc(F)ccc1Cl [Compound I-217] |
| 1000 to 10000 | O=C1N[C@H](c2cc(F)ccc2Cl)c2c(NC(=O)N3C[C@](O)(C(F)(F)F)c4cc(F)ccc43)cccc21 (single isomer, unassigned) [Compound I-2516] |
| 10000 to 100000 | O=C(Nc1cccc2c1C(c1cccc(Br)c1)NC2=O)c1cc(F)cc(C(F)(F)F)c1 (centres unmarked) [Compound I-663] |
| ≤ 100 | N#Cc1ccncc1-c1cc(NC(=O)c2cc(F)cc(C(F)(F)F)c2)c2c(c1)C(=O)NC2c1cc(F)ccc1Cl (centres unmarked) [Compound I-1537] |
| 10000 to 100000 | O=C1NC(c2cc(F)ccc2Cl)c2c(NC(=O)C34CC5CC(CC(C5)O3)C4)cccc21 (centres unmarked) [Compound I-2303] |
| 1000 to 10000 | NC(=O)c1cc(-c2ccc3ncnn3c2)cc2c1C(c1cc(F)ccc1Cl)NC2=O (centres unmarked) [Compound I-1774] |
| 1000 to 10000 | O=C(Nc1cc(-c2ccc3ncnn3c2)cc2c1C(c1cc(F)ccc1Cl)NC2=O)c1nc2ccccc2s1 (centres unmarked) [Compound I-1631] |
| 100 to 500 | NC1CN(c2cc(NC(=O)c3cc(F)cc(C(F)(F)F)c3)c3c(n2)C(=O)NC3c2cc(F)ccc2Cl)C1 (centres unmarked) [Compound I-417] |
| 10000 to 100000 | O=C1NC(c2cc(F)ccc2Cl)c2c(COc3ccccc3)cc(-c3ccc4ncnn4c3)cc21 (centres unmarked) [Compound I-2017] |
| ≤ 100 | O=C(Nc1cc(NCC(F)F)nc2c1C(c1cc(F)ccc1Cl)NC2=O)c1cc(F)cc(C(F)(F)F)c1 (centres unmarked) [Compound I-338] |
| ≤ 100 | O=C1N[C@@H](c2cc(F)ccc2Cl)c2c(NC(=O)N3CC4(CC4)c4cc(F)ccc43)cc(Br)cc21 (stereo in doubt) [Compound I-1509] |
| ≤ 100 | NS(=O)(=O)Cc1cc(NC(=O)c2cc(F)cc(C(F)(F)F)c2)c2c(c1)C(=O)N[C@H]2c1cc(F)ccc1Cl [Compound I-1480] |
| ≤ 100 | O=C(Nc1cc(-c2ccc3nnnn3c2)cc2c1C(c1cc(F)ccc1Cl)NC2=O)c1cc(F)cc(C(F)(F)F)c1 (centres unmarked) [Compound I-1374] |
| ≤ 100 | Cn1cncc1C#Cc1cc(NC(=O)c2cc(F)cc(C(F)(F)F)c2)c2c(c1)C(=O)NC2c1cc(F)ccc1Cl (centres unmarked) [Compound I-1247] |
| 10000 to 100000 | O=C1N[C@@H](c2cc(F)ccc2Cl)c2c(NC(=O)[C@H]3CCCCN3)cc(-c3ccc4ncnn4c3)cc21 (racemic) [Compound I-1779] |
| 1000 to 10000 | O=C1NC(c2cc(F)ccc2Cl)c2c(NC(=O)N3CCC4C(C3)C4C(F)(F)F)cc(Br)cc21 (centres unmarked) [Compound I-1756] |
| 100 to 500 | Nc1c(Cl)cc(F)cc1C(=O)Nc1cc(Br)cc2c1C(c1cc(F)ccc1Cl)NC2=O (centres unmarked) [Compound I-843] |
| ≤ 100 | O=C(Nc1cc(N2CC(O)C2)nc2c1C(c1cc(F)ccc1Cl)NC2=O)c1cc(F)cc(C(F)(F)F)c1 (centres unmarked) [Compound I-575] |
| 10000 to 100000 | O=C1NC(c2cc(F)ccc2Cl)c2c(NC(=O)C34CC(C(O)(C5CC5)C5CC5)(C3)C4)cccc21 (centres unmarked) [Compound I-2118] |
| 10000 to 100000 | CN1CCN(C(=O)Nc2cc(Br)cc3c2[C@@H](c2cc(F)ccc2Cl)NC3=O)CC1 (single isomer, unassigned) [Compound I-2245] |
| ≤ 100 | O=C1NC(c2cc(F)ccc2Cl)c2c(NC(=O)C3CCCC(C(F)(F)F)C3)cc(-c3ccc4ncnn4c3)cc21 (mixture of isomers) [Compound I-1816] |
